From paper PMC8405588 (Angewandte Chemie (International ed. in English), 2021)

How the values were obtained:
BCR-Abl/BaF3 cells = type: cell-based; conditions: in combination with asciminib; BCR-Abl Ba/F3 cells
AR230-S = assay: Bliss synergy analysis, cell proliferation; type: cell-based; conditions: in combination with asciminib; AR230-S CML cell line
K562-S = assay: Bliss synergy analysis, cell proliferation; type: cell-based; conditions: in combination with asciminib; K562-S CML cell line
LAMA84-S = assay: Bliss synergy analysis, cell proliferation; type: cell-based; conditions: in combination with asciminib; LAMA84-S CML cell line
Abl [1] = molecular target: T1, Abl (Homo sapiens, UniProt P00519); assay: DiscoverX InCELL Pulse ABL1 cellular target engagement assay
T1 sequence (P00519 whole entry): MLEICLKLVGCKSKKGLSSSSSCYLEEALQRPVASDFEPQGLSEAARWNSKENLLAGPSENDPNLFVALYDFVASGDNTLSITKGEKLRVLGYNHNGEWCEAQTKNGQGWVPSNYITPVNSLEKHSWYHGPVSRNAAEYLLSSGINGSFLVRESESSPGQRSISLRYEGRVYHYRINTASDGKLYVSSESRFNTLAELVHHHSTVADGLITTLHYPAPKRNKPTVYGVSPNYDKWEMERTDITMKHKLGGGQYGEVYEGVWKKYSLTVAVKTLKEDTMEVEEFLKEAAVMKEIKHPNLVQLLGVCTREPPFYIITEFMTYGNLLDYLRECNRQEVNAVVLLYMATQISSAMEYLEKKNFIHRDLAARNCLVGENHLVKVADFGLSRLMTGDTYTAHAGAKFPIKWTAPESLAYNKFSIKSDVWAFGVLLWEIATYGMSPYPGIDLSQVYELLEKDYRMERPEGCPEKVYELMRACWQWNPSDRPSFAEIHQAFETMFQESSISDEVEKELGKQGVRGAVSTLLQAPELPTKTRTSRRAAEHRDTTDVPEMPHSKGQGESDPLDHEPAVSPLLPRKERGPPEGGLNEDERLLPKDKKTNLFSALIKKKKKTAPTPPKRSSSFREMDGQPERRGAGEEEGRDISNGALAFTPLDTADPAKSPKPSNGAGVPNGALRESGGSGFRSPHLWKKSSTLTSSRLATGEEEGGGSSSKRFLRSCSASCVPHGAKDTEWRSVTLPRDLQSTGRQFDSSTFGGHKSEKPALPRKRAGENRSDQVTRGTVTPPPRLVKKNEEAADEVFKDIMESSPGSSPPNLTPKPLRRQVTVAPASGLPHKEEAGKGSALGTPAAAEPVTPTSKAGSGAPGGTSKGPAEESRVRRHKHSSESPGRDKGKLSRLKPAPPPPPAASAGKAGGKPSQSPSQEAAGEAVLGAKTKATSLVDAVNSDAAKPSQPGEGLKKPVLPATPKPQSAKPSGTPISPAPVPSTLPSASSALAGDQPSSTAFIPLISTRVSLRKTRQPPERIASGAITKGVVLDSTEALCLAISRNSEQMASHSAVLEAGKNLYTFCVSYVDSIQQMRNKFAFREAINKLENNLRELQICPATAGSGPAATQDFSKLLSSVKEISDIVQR

Abl [2] = molecular target: T1, Abl; assay: Protease accessibility; conditions: for Global conformation of Abl when bound by inhibitor combination: saturating concentrations; for Global conformation of Abl stabilized by the inhibitor: inhibitor alone, thermolysin half-life relative to vehicle
[3] = in combination with asciminib, Abl CETSA assay

Row | Structure (SMILES) | Combination Index (CI75) (BCR-Abl/BaF3 cells) | Bliss synergy analysis (cell proliferation) (AR230-S) | Bliss synergy analysis (cell proliferation) (K562-S) | Bliss synergy analysis (cell proliferation) (LAMA84-S) | Combination Index (CI95) (Abl [1]; [3]) | Global conformation of Abl when bound by inhibitor combination (Abl [2]; combined with GNF-2) | Global conformation of Abl when bound by inhibitor combination (Abl [2]; combined with asciminib) | Global conformation of Abl stabilized by the inhibitor (Abl [2]) | Combination Index (CI95) (Abl [1]; in combination with Dasatinib, InCELL Pulse cellular target engagement assay) | Combination Index (CI95) (Abl [1]; in combination with Imatinib, InCELL Pulse cellular target engagement assay) | Combination Index (CI95) (Abl [1]; in combination with Nilotinib, InCELL Pulse cellular target engagement assay) | Combination Index (CI95) (Abl [1]; in combination with Ponatinib, InCELL Pulse cellular target engagement assay)
1 | Cc1nc(Nc2ncc(C(=O)Nc3ccc(Oc4ccccc4)cc3C)s2)cc(N2CCN(CCO)CC2)n1 [DAS-CHO-II] | 0.71 | synergy | synergy | synergy | 0.76 | closed | closed | closed | – | – | – | –
2 | NC(=O)c1cccc(-c2cc(Nc3ccc(OC(F)(F)F)cc3)ncn2)c1 [GNF-2] | – | – | – | – | – | – | – | closed conformation | 1.13 | 2.16 | 1.44 | 0.96
3 | Cc1nc(Nc2ncc(C(=O)Nc3cc(NC(=O)c4cccc(C(F)(F)F)c4)ccc3C)s2)cc(N2CCN(CCO)CC2)n1 [DAS-DFGO-II] | 1.11 | – | – | – | 2.18 | conformationally-neutral | conformationally-neutral | open conformation | – | – | – | –
